Source: US20150025034A1, “COMPOSITION FOR CARE AND HYGIENE OF THE AUDITORY CANAL” (LABORATOIRES GILBERT, priority 2012, published 2015)

Assay: In vitro assessment of the cerumenolytic effect on plugs of human cerumen
Conditions: 1 ml per 30 mg plug, 1 hour incubation, 37° C.
Experimental: The activity was assessed through the loss of weight of the plugs of cerumen caused by the dissolution of part of this plug, or more precisely the loss was calculated between the initial dry weight and the remaining dry weight after action of the product in the test.
Reference product: an aerosol spray based on pure sea water (nitrogen propellant), hereinafter referred to as T1, an aerosol spray containing sodium bicarbonate and polysorbate as active principles, hereinafter referred to as T2, and ultrapure water (type 1, Milli-Q water) are used as references. T1 and T2 are commercially available compositions used by way of compositions for the care and hygiene of the auditory channel and judged effective.
12 plugs of human cerumen, to a total weight of 1.55 grams, came from patients from the Ear, Nose and Throat Department of the Saint-Grégoire Hospital (35760). The plugs were mixed in order to obtain a homogeneous plug. […]
The effect sought is the dissolution of the plug. This dissolution is assessed by the loss of weight of the plug between the initial dry weight and the dry weight after incubation. […]
1 ml of composition CE1 and the reference compositions were added separately in previously weighed tubes and put in an oven at 90° C. for 48 hours in order to determine the quantity of dry residues of each composition. […]

Compound: O [pure water, water]
- Dissolution of human cerumen (loss of dry weight of the plug): 51.5%
